# Results as given in a melting point compilation (Tetko et al.; mined from patent text by program, amines drawn as free bases though some values may be those of a salt).
row,SMILES,melting point [°C]
1,COc1ccc(C2CCCCC2)cc1-c1csc(NC(=O)N2CCN(C(=O)C3CCOCC3)CC2)n1,276
2,Cc1nn(CCC(C)C)c(C)c1CC(=O)O,135 to 136
3,CC1=CC(C)(C)Nc2ccc(O)cc21,182 to 184
4,COc1ccccc1OCCCc1nc(-c2ccc(Cl)cc2)co1,94 to 95
5,O=[N+]([O-])c1ccc(Nc2nc(Cl)nc3nc[nH]c23)cc1,> 270
6,CC1OC(=O)Nc2ccc(-c3cccc(F)c3)cc21 (configuration not stated),160 to 161
7,Cc1cc(OCCN2CCOCC2)nn1-c1ccc2ccc(O)cc2c1,103 to 107
8,Cc1[nH]cnc1CN1CC2COc3ccccc3N2C1=O (configuration not stated),212 to 216
9,Nc1nc2ccccc2c2c1nc1n2C(COc2ccccc2)COC1 (configuration not stated),189 to 195
10,NC(C=C(CCCCO)CP(=O)(O)O)C(=O)O (configuration not stated),152 to 155
11,COc1cc(/C=C/c2cc(/C=C/c3ccc4cc[nH]c4c3)n[nH]2)cc(OCc2ccccn2)c1,88 to 93
12,Cc1nc(NCCN2CCOCC2)c2nc(-c3ccccc3)cc-2[nH]1,> 280
13,Clc1ccc(C(c2ccc(Cl)cc2)n2ncnn2)cc1,91 to 92
14,O=S1(=O)c2cccc3cccc(c23)N1CCN1CCC(Cc2c[nH]c3ccccc23)CC1,184
15,O=C(O)c1ccccc1SC1CCOC1=O (configuration not stated),180 to 182
16,CC(C(=O)O)c1ccc(N)c(C(F)(F)F)c1 (configuration not stated),73 to 75
17,O=C(O)c1ccc(OC(F)F)c2oc3ccc([N+](=O)[O-])cc3c12,> 270
18,Cc1cn(C)c2c1N(C(=O)CCN1CCCC1)c1ccccc1NC2=O,185
19,COc1cccc(C(=O)OCC2(COC(=O)c3cccc(OC)c3)c3ccccc3-c3ccccc32)c1,129 to 130
20,CCc1nc2ccccc2c(=O)n1CCNc1ccc(SC(C)(C)C(=O)O)cc1,124 to 126
21,CC12CC(=O)C3C(CCC4CC(O)CCC43C)C1CCC2C(=O)CCN1C(=O)c2ccccc2C1=O (configuration not stated),187 to 189
22,COC(=O)c1ccc(CCC(=O)/C=C/c2ccc(O)c(OC)c2)o1,93 to 94
23,COc1cc2c(cc1C)CCN=C2CCc1ccc(Cl)cc1,122 to 124
24,C=C(C)CCC(=O)C(C(=O)OCC)C1c2ccccc2C(=O)N1c1ccc2ccc(Cl)nc2n1 (configuration not stated),125

row,SMILES,melting point [°C]
1,c1ccc(-c2nnc3cc(C45CCC(CC4)C5)c(OCc4ccccn4)nn23)cc1,166 to 168
2,Cc1ccc2c(c1C)C(=O)C(=O)N2,225 to 226
3,O=[N+]([O-])c1ccc(-c2nc(-c3ccccn3)no2)cc1,211 to 213
4,Cn1cc(-c2cccc(Cl)c2)c(=O)c(-c2cccc(Br)c2)c1,192
5,COCCn1nc(C(=O)NCc2ccc(OC(C)(C)C(=O)O)c(C)c2)cc1-c1ccc(C(C)(C)C)cc1,65
6,COc1ccc(C=CC2=NNC(C)Cc3cc(OC)c(OC)cc32)c(OC)c1 (configuration not stated),118 to 120
7,COP(C)(=O)C(O)[C@H](CC1CCCCC1)NC(=O)[C@H](CC(C)C)NC(=O)CCc1ccccc1 (some centres not stated),165 to 170
8,CNc1cc(Br)nc(S(=O)(=O)c2ccc([N+](=O)[O-])cc2)c1,191 to 192
9,O=C1C[C@H]2CCCC[C@]23c2cccn2CCN13 (relative stereo),122 to 123
10,OC(CCN1CC=C(c2ccccc2)CC1)c1ccc(Cl)cc1 (configuration not stated),141
11,CC(C(=O)NCC(F)(F)C(F)(F)F)C(=O)NC1C(=O)Nc2cc(F)ccc2OC1C (configuration not stated),215 to 216
12,O=c1[nH]c2cc(Cl)ccc2c(O)c1SC/C=C\c1ccccc1,> 300
13,CCCCCS(=O)(=O)NC(=O)/C=C/c1ccc(OCCC(C)(C)O)cc1Oc1ncc(C(F)(F)F)cc1Cl,136
14,O=C(Oc1ccccc1)c1cc(Cl)c2ccccc2c1O,102 to 104
15,Nc1cc(Cl)ncc1F,110 to 111
16,O=c1c2cccnc2n(-c2cccc([N+](=O)[O-])c2)c(=O)n1Cc1ccncc1,207 to 209
17,CCCn1c(=O)c2c(NC)n[nH]c2n(Cc2ccc(Cl)cc2)c1=O,305 to 307
18,CCCCCCCCCCCCNC(=O)n1nc(Oc2ncc(C(F)(F)F)cc2Cl)c(Cl)c1C,68 to 70
19,CN(C)c1nnc(NN)c(=O)[nH]1,264 to 266
20,CCCc1c(O)cccc1Oc1ccccc1C#N,103 to 107
21,Cc1nc(N2CCN(Cc3ccc(C(F)(F)F)cc3)C2=O)sc1C(=O)NCc1cccnc1,107 to 108
22,CCOC(=O)c1cn(-c2nc(C)ns2)c2cc(F)c(F)cc2c1=O,157 to 159
23,O=c1c2ccc(Cl)cc2n(Cc2ccccc2)n2c(Cl)ccc12,134 to 136
24,COc1ccc2c(c1)NC(=O)C(CCO)O2 (configuration not stated),111 to 113

row,SMILES,melting point [°C]
1,CC(=O)NC[C@H]1CN(c2cc(F)c(C3CCNCC3)c(F)c2)C(=O)O1,125 to 126
2,Cc1nc(-n2ccc(OCCC3CC3)cc2=O)sc1C(=O)NCc1ccccc1,172 to 174
3,CCc1cc(N(C=O)c2ccccc2)cc(CC)c1N(C(N)=S)C(C)(C)C,160 to 162
4,COC(=NC(=O)c1ccc(F)cc1)N1Cc2ccccc2-c2ccccc2C1,136 to 138
5,COC(=O)C12C3C4C1(C(=O)OC)C1(Cl)C2C3(C(=O)OC)C41C(=O)OC (configuration not stated),134 to 135
6,COc1ccc2c(c1)C(CCNC(=O)C(F)(F)F)C(c1ccccc1)C2 (configuration not stated),109 to 111
7,CCNC(=O)c1ccc(-n2nnc(C(=O)NC3CC3)c2CS(=O)(=O)c2ccccc2)cc1,169 to 172
8,Cc1ccc2c(c1)c(Cc1nc3c(F)c(F)cc(F)c3s1)cn2CC(=O)O,131 to 133
9,COc1cc2c(cc1OC)CCN(CCCN(C)C1CCc3cc(OC)c(OC)cc3C1)C=C2 (configuration not stated),115 to 116
10,CCN1C2=C(CSC2)C(=O)Nc2ccccc21,195 to 197
11,CCOCCOc1ccc(C(C)C)c(NC(=O)CN2CCN(CCSc3nc4ccccc4o3)CC2)c1C(C)C,100 to 103
12,CC(C)N(CCSc1ccc(Cl)cc1)C(=O)Oc1ccccc1,54 to 56
13,O=c1ccccn1CCCn1ccccc1=O,132
14,COc1cc(OC)nc(Oc2cc([N+](=O)[O-])ccc2C(=O)O)n1,93 to 96
15,CCCc1c(CSc2ncccc2OCC(=O)OCC)ccc(C(C)=O)c1O,98 to 100
16,COC(=O)c1ccc2cc(CO)ccc2c1,120 to 121
17,CCCCn1c(-c2ccccc2)c(Cc2c(O)ccc3ccccc23)c(=O)[nH]c1=S,201 to 203
18,COC(=O)C1CN1C(C)=O (configuration not stated),39 to 40
19,CCCCCCCCCCCCCCn1c(=O)[nH]c2nc3ccccc3n2c1=O,193
20,CC(=O)NCCC1CCc2ccc3nn(C)cc3c21 (configuration not stated),123 to 125
21,O=C(Nc1ccc(Cl)c(Cl)c1)ONC1=Nc2ccc([N+](=O)[O-])cc2C(c2ccccc2Cl)=NC1,190 to 192
22,CN(CCC#N)C(=O)c1nc(Cl)c(Cl)[nH]1,184
23,NC1=C2C(=Nc3ccccc3S2(=O)=O)c2ccccc2C1=O,264 to 266
24,CCCCCCCCCCc1cc2c(s1)-n1c(C)nnc1CN=C2c1ccccc1C,61 to 63
